# Key:
# Kv1.3 potassium channel = molecular target: T1, Kv1.3 potassium channel (Homo sapiens, UniProt P22001); assay: IC50 from whole-cell patch clamp in Jurkat T cells; type: cell-based
# T1 construct: gene KCNA3; His-Kv1.3 expressed in 293T cells and purified (gel shift); endogenous Kv1.3 in Jurkat T cells (patch clamp)
# mouse Kv1.3 = molecular target: T2, mouse Kv1.3 (Mus musculus, UniProt P16390); assay: whole-cell patch clamp; type: cell-based
# T2 construct: gene Kcna3; mouse Kv1.3 stably expressed in L929 cells
# T2 sequence (P16390 whole entry): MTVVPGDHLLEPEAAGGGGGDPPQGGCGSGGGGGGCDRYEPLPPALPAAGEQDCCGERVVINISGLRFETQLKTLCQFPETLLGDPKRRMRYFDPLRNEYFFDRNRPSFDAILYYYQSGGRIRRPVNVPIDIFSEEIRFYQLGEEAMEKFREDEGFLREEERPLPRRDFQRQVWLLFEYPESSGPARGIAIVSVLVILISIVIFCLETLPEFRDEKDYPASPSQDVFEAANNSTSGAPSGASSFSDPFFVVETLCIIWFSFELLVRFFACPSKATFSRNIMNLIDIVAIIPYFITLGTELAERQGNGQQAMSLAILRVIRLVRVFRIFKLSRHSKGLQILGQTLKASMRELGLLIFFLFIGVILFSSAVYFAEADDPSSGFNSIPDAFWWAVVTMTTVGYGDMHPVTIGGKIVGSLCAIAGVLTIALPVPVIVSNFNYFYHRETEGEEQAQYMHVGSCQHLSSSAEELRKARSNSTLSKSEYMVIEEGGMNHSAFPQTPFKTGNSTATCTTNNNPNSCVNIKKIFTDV
# T1 sequence (P22001 whole entry): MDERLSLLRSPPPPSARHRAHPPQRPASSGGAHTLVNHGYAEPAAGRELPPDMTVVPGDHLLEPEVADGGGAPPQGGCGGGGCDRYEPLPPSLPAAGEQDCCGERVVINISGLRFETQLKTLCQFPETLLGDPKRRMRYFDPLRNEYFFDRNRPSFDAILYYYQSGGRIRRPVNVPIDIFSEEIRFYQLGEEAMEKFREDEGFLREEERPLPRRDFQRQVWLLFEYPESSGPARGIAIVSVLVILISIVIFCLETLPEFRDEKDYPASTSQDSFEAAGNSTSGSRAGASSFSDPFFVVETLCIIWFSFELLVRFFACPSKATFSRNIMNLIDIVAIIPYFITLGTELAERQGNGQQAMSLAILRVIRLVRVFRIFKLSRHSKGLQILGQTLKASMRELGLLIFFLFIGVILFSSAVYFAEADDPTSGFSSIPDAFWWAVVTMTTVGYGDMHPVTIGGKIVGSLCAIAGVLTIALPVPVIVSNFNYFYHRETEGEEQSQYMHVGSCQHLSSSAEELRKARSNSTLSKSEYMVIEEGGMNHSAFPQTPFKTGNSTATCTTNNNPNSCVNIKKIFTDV
compound,measurement,setting,value
"CC(C)/N=c1\cc2n(-c3ccc(Cl)cc3)c3ccccc3nc-2cc1Nc1ccc(Cl)cc1 [CLF, clofazimine]",IC50,Kv1.3 potassium channel,300 nM
same,IC50,mouse Kv1.3,470 nM

# Source: PMC2602975, “Clofazimine Inhibits Human Kv1.3 Potassium Channel by Perturbing Calcium Oscillation in T Lymphocytes” (PLoS ONE, 2008)
